Source: US5470873A, “Diabetes prevention and treatment using gamma-pyrones” (University Technologies International, Inc., priority 1994, dated 1995)

Legend:
[1] = immunosuppressive therapy, humans; cited from earlier work
[2] = oral; flavoring agents for foods; cited from earlier work
pancreatic beta cells = experiment: Destruction of pancreatic beta cells detected by fluorescein labelled anti-insulin antibody; format: in vivo, NOD mice; details: compared to untreated, diabetic NOD mice
Experimental: Fluorescein isothiocyanate-labelled anti-insulin antibody was prepared as described previously 45. Briefly, gamma globulin that was prepared by immunizing guinea pigs with glutaraldehyde polymerized porcine insulin and purified by Sephadex G-200 chromatography was purchased from Index Corp., Glenwood, Ill, USA. This material was labelled with FITC. Unconjugated FITC was removed by dialysis against 0.01M PBS (pH 7.5) and by gel filtration through a Sephadex G-25. The labelled gamma globulin was subsequently absorbed with acetone-treated mouse liver powder to eliminate nonspecific fluorescence. Pancreatic sections (from 25% of each pancreas) prepared from maltol-treated and untreated NOD mice were stained with FITC-labelled anti-insulin antibody and examined under a fluorescent microscope as described elsewhere 47.48. Briefly, pancreatic sections on the slides were flooded with FITC-labelled anti-insulin antibody and incubated in a humidity chamber overnight at 4° C. in the dark. The slides were then washed in three changes of cold PBS for a total of 20 min to remove any unattached antibody, mounted with Elvanol and observed with an Olympus fluorescence microscope ^45. As it is difficult to determine whether the lymphocytes observed in the pancreatic islets are contributing to beta cell destruction, another method was used to determine whether beta cells from maltol-treated or untreated NOD mice were destroyed or not. Sections of pancreatic islets were stained with a fluorescein-labelled anti-insulin antibody and the number of insulin-containing beta cells in the islets was estimated.

pancreatic islets = experiment: Histologic changes of pancreatic islets (hematoxylin and eosin); format: in vivo, NOD mice; details: compared to untreated, diabetic NOD mice
From the text: Maltol-treated and untreated NOD mice were sacrificed and 25% of each pancreas was fixed in 6% Formalin. Paraffin-embedded sections were stained with hematoxylin and eosin and examined under an Olympus light microscope ^49. To see whether there are any histological differences between the pancreatic islets of DPD-treated and untreated NOD mice, the pancreatic islets of 35 week old mice were examined with the light microscope after staining with hematoxylin and eosin. […] The rest of their islets were rated as having either severe (22%), moderate (27%), mild (25%) or no (6%) insulitis. […] In addition, there were histopathological changes in their pancreatic islets that were rated as moderate (22% of examined islets), mild (30%) or as having no insulitis (15%).

[3] = Prevention of clinical diabetes (glycosuria) in NOD mice; format: in vivo
Experimental: (§1) NOD mice were dosed with maltol to evaluate its effect on the pathogenesis of type I diabetes. Mice received 5 mg maltol/mouse every other day from age 2 weeks until they were 20 weeks old. Maltol extracted from ginseng as described in Example 2 was used for the first 10 weeks, then maltol purchased from Sigma Co., St. Louis, MO was used thereafter. The mice were kept until they were 35 weeks old. Urine glucose was measured at 3-day intervals from 10 to 35 weeks of age. Urinary glucose and ketone levels were determined using Diastix and Ketostix reagent slips (Miles, Ontario, Canada). Individual mice were classified as being diabetic on the basis of positive glycosuria^38. […] In contrast, 78% of age-matched control mice (22 mice) spontaneously developed autoimmune diabetes. At 35 weeks of age, fasting (8 hours of fasting) and non-fasting blood glucose levels were measured. Blood was obtained from the retro-orbital venous plexus of fasting and nonfasting NOD mice. Glucose levels were measured enzymatically by the glucose oxidase method with o-dianisidine dihydrochloride as the reactive dye ^39-41 . The mean nonfasting blood glucose level of 35 ICR mice (nondiabetic control mice; NOD mice were derived from ICR mice) was 149±27 mg/dl. Any non-fasting mouse with a blood glucose level greater than 230 mg/dl (3 SD above the mean) was scored as diabetic. The mean fasting blood glucose level of 38 ICR mice was 137±28 mg/dl. Any fasting mouse with a blood glucose level greater than 221 mg/dl (3 SD above the mean) was scored as diabetic.

[4] = Pancreatic insulin content (immunoreactive insulin, radioimmunoassay) in NOD mice; format: in vivo
Experimental: Insulin was extracted from the pancreas of non-obese diabetic (NOD) mouse by known methods ^33,34. Briefly, deep frozen pancreatic tissue (50% of each pancreas) was placed into phosphate buffered saline (PBS) and then extraction solution A (380 ml absolute alcohol, 20 ml H2 O, 8 ml concentrated HCl and some drops of alcoholic phenol red) was added. This mixture was homogenized with polytron type PT 10-20-[…] in glass tubes (15×125 mm) for 30 seconds in position 5. The homogenized material in the tubes was incubated at 4° C. for 10 hours. At the end of the incubation period, the homogenized material was centrifuged at 800 g for 5 minutes for clarification. The supernatant was saved. The pellet was re-extracted with 1 ml of extraction solution B (356 ml absolute alcohol, 124 ml H2 O and 7.5 ml HCl). The pellet in extraction solution B was incubated for 4 hours at 4° C. and then homogenized with a polytron as described above. The homogenized material was centrifuged at 800 g for 5 minutes. The supernatant was pooled with the supernatant from the first extraction. The pooled supernatant was neutralized with concentrated NH40 H (about 10 μl ) until the phenol red turned to purple. The neutralized supernatant was precipitated at 4° C. and then centrifuged at 800 g for 5 min. The supernatant, which contains insulin, was used for the measurement of insulin by radioimmunoassay. The concentration of immunoreactive insulin (IRI) in the pancreas from DPD-treated and untreated NOD mice was measured by radioimmunoassay techniques ^42-44 using mouse insulin as a standard. Briefly, the extracted samples from NOD mice were mixed with […], and anti-insulin antibody. The mixed materials were incubated for 2 hours at room temperature. At the end of the incubation period, anti-guinea pig IgG raised in sheep was added and the mixture was incubated for 30 minutes at room temperature. At the end of the incubation, the samples were centrifuged at 1500 g for 10 minutes. The supernatant was completely removed. The radioactivity of the pellets was measured. The percent of activity was determined by the following formula: [formula] On the basis of % activity in standards, a standard curve was constructed. The concentration of each unknown sample from maltol-treated or untreated NOD pancreas was read on the basis of the standard curve. […] The maltol-treated mice have insulin levels that are similar to the non-diabetic, untreated animals. About 75% of the maltol-treated mice have insulin levels over 80 μg/g pancreas and about 25% have insulin levels between 55-75 μg/g pancreas.

[5] = Blood glucose levels in NOD mice (glucose oxidase method); format: in vivo; details: 35 weeks of age
Experimental: as §1

[6] = Inhibition of hydrogen peroxide induced free radical production (luminol chemiluminescence); format: biochemical; details: for Chemiluminescence: 3 μM luminol, 20 μl H2O2, without maltol 11845.0 ± 1414.0
Experimental: One of the possible mechanisms for the destruction of pancreatic beta cells in autoimmune Type I diabetes is their damage by free radicals and cytokines released from macrophages and T lymphocytes. It is hypothesized that maltol can inhibit the action of these released radicals and thus prevent Type I diabetes. We measured the effect of maltol on the inhibition of free radicals produced by hydrogen peroxide.
Chemiluminescence produced by hydrogen peroxide was measured using a liquid scintillation counter (LKB 1217/1217 Rack Beta) set to the tritium channel. Briefly, luminol (5-amino-2,3-dihydro-l,4-phthalazinedione) was dissolved in dimethylsulfoxide and diluted with Krebs-Ringer bicarbonate buffer (pH 7.4) containing […] Hepes and no glucose. The final concentration of dimethylsulfoxide was 0.06 μl/ml. Under these assay conditions, 3 μM luminol and various amounts of hydrogen peroxide ranging from 5-20μl were mixed with 5 ml of Krebs-Ringer bicarbonate buffer, with or without maltol. Chemiluminescence was measured for a 30 second period beginning at 20 seconds after the addition of hydrogen peroxide.

SMILES	Effect on course of IDDM [1]	Toxicity when taken orally [2]	Destruction of pancreatic beta cells (in words) (pancreatic beta cells)	Lymphocytic infiltration of the pancreatic islets (in words) (pancreatic islets)	Success in preventing clinical diabetes [3] [%]	Mice showing signs of clinical diabetes ([3]; 5 mg/mouse every other day, age 2 to 20 weeks, urine glucose 10 to 35 weeks, untreated 78%) [%]	Prevention / recurrence of clinical diabetes (in words) ([3]; observed to 35 weeks, incl. 15 weeks after cessation of treatment)	Pancreatic insulin / protection from beta cell destruction (in words) ([4]; NOD mice)	Pancreatic insulin level ([4]; about 25% of the maltol-treated mice)	Pancreatic insulin level ([4]; about 75% of the maltol-treated mice, majority of untreated less than 10 μg/g)	Mean fasting blood glucose ([5]; fasting (8 hours), untreated diabetic 334±47) [mg/dL]	Mean non-fasting blood glucose ([5]; non-fasting, untreated diabetic 342±45) [mg/dL]	Percent inhibition of free radical production ([6]; 0.2 mM maltol) [%]	Chemiluminescence ([6]; 0.2 mM maltol) [cpm]	Percent inhibition of free radical production ([6]; 2.0 mM maltol) [%]	Chemiluminescence ([6]; 2.0 mM maltol) [cpm]	Percent inhibition of free radical production ([6]; 80 mM maltol) [%]	Chemiluminescence ([6]; 80 mM maltol) [cpm]
O=P1(N(CCCl)CCCl)NCCCO1 (stereo not shown) [cyclophosphamide]	did not alter the course of the disease																	
CCc1occc(=O)c1O [ethyl maltol]		very low toxicities when taken orally																
Cc1occc(=O)c1O [maltol, 3-Hydroxy-2-methyl-4-pyrone]		very low toxicities when taken orally	significantly less destruction of pancreatic beta cells	much less lymphocytic infiltration of the pancreatic islets	100	0	can prevent clinical diabetes completely	substantial protection from beta cell destruction	55-75 μg/g pancreas	over 80 μg/g pancreas	92 ± 17	132 ± 19	60	4829.3 ± 792.1	98	210. ± 55.1	99.7	31.6 ± 3.1
